Here are results for three compounds from patent publication US8927531B2, “Indanyloxydihydrobenzofuranylacetic acids” (Boehringer Ingelheim International GmbH, priority 2013, dated 2015).

pEC50: −log10 of the molar value.

Sequence of human GPR40 receptor (O14842 whole entry): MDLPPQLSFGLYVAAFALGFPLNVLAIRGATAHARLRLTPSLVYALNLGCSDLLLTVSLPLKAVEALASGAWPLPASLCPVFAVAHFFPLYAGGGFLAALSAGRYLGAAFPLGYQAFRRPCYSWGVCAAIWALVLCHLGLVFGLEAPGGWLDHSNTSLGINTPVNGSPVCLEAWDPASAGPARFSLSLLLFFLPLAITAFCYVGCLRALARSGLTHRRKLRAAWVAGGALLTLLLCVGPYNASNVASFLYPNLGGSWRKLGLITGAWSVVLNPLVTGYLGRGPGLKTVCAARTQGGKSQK

This assay addresses human GPR40 receptor (Homo sapiens, UniProt O14842). Put plainly: IP1 accumulation measurements using the IPOne assay system in 1321N1 cells stably expressing human GPR40 receptor. The assay is classed as cell-based. To be noted: stimulation 1 h at 37° C. Here is the method: IP1 accumulation measurements using the IPOne assay system—1321N1 cells stably expressing human GPR40 receptor (Euroscreen, Belgium) are seeded 24 h before the assay in white 384-well plates in culture medium containing 10% FCS, 1% Na-Pyruvate and 400 μg/mL G418. IP1 is assayed according to the manufacturer's description (Cisbio Bioassays, France). In brief, the assay is started by substitution of the culture medium by stimulation buffer (Hepes 10 mM, CaCl2 1 mM, MgCl2 0.5 mM, KCl 4.2 mM, NaCl 146 mM, glucose 5.5 mM and LiCl 50 mM, pH 7.4). Cells are stimulated for 1 h at 37° C., 5% CO2 by addition of the compounds that are diluted in stimulation buffer containing LiCl. Assays are stopped by adding HTRF-conjugates (IP1-d2 and Anti-IP1 cryptate Tb) and lysis buffer, provided by the manufacturer. After an incubation time of 1 h at room temperature plates are measured using an EnVision™, Perkin Elmer. The obtained fluorescence ratios at 665/615 […] are then used to calculate the pEC50 values using Assay Explorer 3.3 Software (Accelrys, Inc.) by interpolation using an IP1 reference curve and subsequent sigmoidal curve fitting allowing for a variable hill slope.
Regarding `CC1(O)CCN(Cc2c(C(F)(F)F)ccc3c2CC[C@H]3Oc2ccc3c(c2)OC[C@H]3CC(=O)O)CC1` [Example 14, {(S)-6-[(R)-4-(4-Hydroxy-4-methyl-piperidin-1-ylmethyl)-5-trifluoromethyl-indan-1-yloxy]-2,3-dihydro-benzofuran-3-yl}-acetic acid], the pEC50 was 7.82.
As for `Cc1nc2c(o1)CCN(Cc1c(C(F)(F)F)ccc3c1CC[C@H]3Oc1ccc3c(c1)OC[C@H]3CC(=O)O)C2` [Example 35, {(S)-6-[(R)-4-(2-Methyl-6,7-dihydro-oxazolo[4,5-c]pyridin-5-ylmethyl)-5-trifluoromethyl-indan-1-yloxy]-2,3-dihydro-benzofuran-3-yl}-acetic acid], the pEC50 is 8.52. This pEC50 is 0.70 log units higher than that of the compound before.
In the case of `Cn1cc2c(n1)CCN(Cc1c(C(F)(F)F)ccc3c1CC[C@H]3Oc1ccc3c(c1)OC[C@H]3CC(=O)O)C2` [Example 31, {(S)-6-[(R)-4-(2-Methyl-2,4,6,7-tetrahydro-pyrazolo[4,3-c]pyridin-5-ylmethyl)-5-trifluoromethyl-indan-1-yloxy]-2,3-dihydro-benzofuran-3-yl}-acetic acid] it was 8.70.
